In article PMC9979976 (Acta Crystallographica. Section F, Structural Biology …, 2023):

Key:
[1] = molecular target: T1, CATIII (chloramphenicol acetyltransferase III; CATIII+GG) (Escherichia coli, UniProt P00484); experiment: X-ray crystal structure, […] A; type: binding
T1 construct: gene cat3; synthetic gene, full length without Met1; expressed in E. coli BL21(DE3); trimer

[2] = molecular target: the molecule itself; experiment: crystal structure; CATIII+GG at 24 mg/ml co-crystallised with 10 mM partially hydrolysed AcOCoA and saturating chloramphenicol; hanging drop, 46% PEG 400, 100 mM MgCl2, 0.1 M sodium citrate pH 5.5; space group P4(2)2(1)2, 1.68 A

## O=C(N[C@H](CO)[C@H](O)c1ccc([N+](=O)[O-])cc1)C(Cl)Cl [chloramphenicol]
[1]; co-crystallized at saturation with AcOCoA/OCoA, pH 5.5, 298 K, active site of each monomer
  X-ray crystal structure, 1.68 A: Our CATIII structure has clear electron density for chloramphenicol in each monomer

## CC(C)(COP(=O)(O)OP(=O)(O)OC[C@H]1O[C@@H](n2cnc3c(N)ncnc32)[C@H](O)[C@@H]1OP(=O)(O)O)[C@@H](O)C(=O)NCCC(=O)NCCO [OCoA, oxa(dethia)CoA]
[1]; minor species (about 20% in monomer A) mixed with AcOCoA, with chloramphenicol, pH 5.5, active site
  X-ray crystal structure, 1.68 A: Our structures here reveal a mixture of bound AcOCoA and OCoA

## CC(=O)OCCNC(=O)CCNC(=O)[C@H](O)C(C)(C)COP(=O)(O)OP(=O)(O)OC[C@H]1O[C@@H](n2cnc3c(N)ncnc32)[C@H](O)[C@@H]1OP(=O)(O)O [AcOCoA, acetyl-oxa(dethia)CoA]
[1]; co-crystallized with 10 mM AcOCoA (partly hydrolysed) and saturated chloramphenicol, pH 5.5, 298 K, active site, clearest in chain A, unreactive substrate analog
  X-ray crystal structure, 1.68 A: In monomer A we can clearly model the position of the acetyl group

B1: Chloramphenicol acetyltransferase III (enzyme)
chain: SGGNYTKFDVKNWVRREHFEFYRHRLPCGFSLTSKIDITTLKKSLDDSAYKFYPVMIYLIAQAVNQFDELRMAIKDDELIVWDSVDPQFTVFHQETETFSALSCPYSSDIDQFMVNYLSVMERYKSDTKLFPQGVTPENHLNISALPWVNFDSFNLNVANFTDYFAPIITMAKYQQEGDRLLLPLSVQVHHAVCDGFHVARFINRLQELCNSKLK
notes: cloning artifact left after TEV cleavage (Ser-Gly-Gly before Asn2); two Zn2+ modelled at contacts between trimers; also called CATIII; CATIII+GG; source: E. coli BL21(DE3), purified (HisTrap HP, TEV cleavage, second HisTrap HP); not shown: His6, N-terminal, cleaved
[2]
  stoichiometry N: 3
